These results are taken from ChEMBL document CHEMBL1152838, “QSAR study of antioxidant activity of wine polyphenols” (Eur J Med Chem, 2009).

Molecules are shown by their SMILES.

Data set [1] is described as follows: ABTS radical scavenging activity assessed as Trolox equivalent antioxidant capacity. Type of data set: physicochemical.
Data set [2] concerns Liver microsomes. Put plainly: Antioxidant activity in Wistar rat liver microsomes assessed as inhibition of lipid peroxidation by TBA assay. It is filed as functional, Microsome.

In the case of `Oc1cc(O)c2c(c1)O[C@H](c1ccc(O)c(O)c1)[C@H](O)C2` [(-)-EPICATECHIN], the Activity in data set [1] is 0.99 mmol/L. The IC50 (in general, the point on the concentration scale where inhibition reaches its midpoint) in data set [2] came out at 25 µM.

With `O=c1cc(-c2ccc(O)cc2)oc2cc(O)cc(O)c12` [APIGENIN], the IC50 in data set [2] amounted to 100 µM.

As for `O=C(O)/C=C/c1ccc(O)c(O)c1` [CAFFEIC ACID], in data set [1], the Activity was 1.01 mmol/L.

For the compound `Oc1cc(O)c2c(c1)OC(c1ccc(O)c(O)c1)C(O)C2` (stereo not drawn) [CATECHIN], the IC50 in data set [2] is 51 µM.

Regarding `Oc1cc(O)c2c(c1)O[C@H](c1ccc(O)c(O)c1)[C@@H](O)C2` [CATECHIN], in data set [1], the Activity is reported as 0.57 mmol/L.

In the case of `COc1cc(/C=C/C(=O)O)ccc1O` [FERULATE], the Activity in data set [1] is given as 0.23 mmol/L.

For the compound `O=C(O)c1cc(O)c(O)c(O)c1` [GALLIC ACID], the Activity in data set [1] is reported as 1.98 mmol/L.

`O=c1c(O)c(-c2ccc(O)cc2)oc2cc(O)cc(O)c12` [KAEMPFEROL]: the Activity in data set [1] amounted to 0.79 mmol/L. In data set [2], the concentration for half-maximal inhibition (IC50) was determined as 19 µM.

`O=c1c(O)c(-c2ccc(O)cc2O)oc2cc(O)cc(O)c12` [MORIN]: the Activity in data set [1] is 0.83 mmol/L. In data set [2], the half-inhibitory concentration (IC50) was 23 µM.

Regarding `O=c1c(O)c(-c2cc(O)c(O)c(O)c2)oc2cc(O)cc(O)c12` [MYRICETIN], the Activity in data set [1] is reported as 1.02 mmol/L. For the same compound, the IC50 in data set [2] came to 10.5 µM.

On to `O=C1C[C@@H](c2ccc(O)cc2)Oc2cc(O)cc(O)c21` [NARINGENIN], for which, in data set [2], the IC50 stood at 100 µM.

As for `O=c1c(O)c(-c2ccc(O)c(O)c2)oc2cc(O)cc(O)c12` [QUERCETIN], in data set [1], the Activity amounted to 1.14 mmol/L. The IC50 in data set [2] was 8.5 µM.

In the case of `Oc1ccc(/C=C/c2cc(O)cc(O)c2)cc1` [RESVERATROL], the Activity in data set [1] was determined as 0.4 mmol/L.
